Converted amounts (≈) assume the structure as drawn. Like-named read-outs stand apart in the source and are kept apart here. Each block holds one compound with its values, some of them ahead of it.
Legend:
IMPDH = target: T1, IMPDH (Homo sapiens, UniProt P12268); assay: IMPDH enzyme assay (OD at 340 nm); format: biochemical; conditions: recombinant human IMPDH II; read-out: IC50, inhibitory activity towards IMPDH
T1 construct: His tag; made in house; host or cells: Escherichia coli

SHP2 = target: T2, SHP2 (Homo sapiens, UniProt Q06124); assay: SHP2 activity assay (pNPP substrate); format: biochemical; conditions: human recombinant enzyme, read-out: IC50, inhibitory activity towards SHP2
T2 construct: made in house; host or cells: E. coli
T2 sequence (Q06124 1-593): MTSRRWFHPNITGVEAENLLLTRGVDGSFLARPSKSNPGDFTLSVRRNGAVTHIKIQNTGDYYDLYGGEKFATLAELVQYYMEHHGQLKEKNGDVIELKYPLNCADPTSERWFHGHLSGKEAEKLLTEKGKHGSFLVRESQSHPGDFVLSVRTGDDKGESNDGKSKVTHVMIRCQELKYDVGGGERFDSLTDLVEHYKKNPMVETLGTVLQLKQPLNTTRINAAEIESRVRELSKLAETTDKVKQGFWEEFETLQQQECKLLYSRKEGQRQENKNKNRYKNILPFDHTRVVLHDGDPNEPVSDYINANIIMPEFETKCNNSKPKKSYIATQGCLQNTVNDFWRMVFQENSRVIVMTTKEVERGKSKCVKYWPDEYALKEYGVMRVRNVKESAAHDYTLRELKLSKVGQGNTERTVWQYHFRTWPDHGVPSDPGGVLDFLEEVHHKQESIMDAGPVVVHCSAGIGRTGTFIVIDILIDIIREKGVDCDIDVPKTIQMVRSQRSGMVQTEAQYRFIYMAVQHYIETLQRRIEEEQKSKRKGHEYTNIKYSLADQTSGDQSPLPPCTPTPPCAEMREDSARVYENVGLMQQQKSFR
Experimental: (§1) Enzyme-inhibitory activity assays were tested according to literatures reported.
S1.3. PTP1B and SHP2 Activity Assays
Human recombinant PTP1B and SHP2 were expressed in E. coli and purifed by Ni-NTA affinity chromotagraphy in our laboratory, respectively. The enzyme activity was measured using p-nitrophenyl phosphate (pNPP) as substrate in a 96-well plate. Brifely, purified recombinant PTP1B or SHP2 (0.05 μg) in 50 μL buffer containing 50 mM citrate (pH 6.0), 0.1 M NaCl, 1 mM EDTA, and 1 mM dithiothreitol (DTT) and test compounds were added to each well of a 96-well plate. After preincubation for 15 min at room temperature, 50 μL of reaction buffer containing 2 mM pNPP was added and incubated at 37 °C for 30 min. The PTP1B or SHP2 activity was measured by detecting the absorbance at 405 nm for the amount of produced p-nitrophenol.
(§2) S2. Larval Settlement Bioassays
(§3) Antifouling activity of compounds was evaluated in settlement inhibition assays with laboratory-reared B. neritina larvae. Larval settlement bioassays were performed using sterile 24-well polystyrene plates as previously reported. Briefly, the stock solution of tested samples in DMSO was diluted with autoclaved filtered sea water (FSW) to concentrations ranging from 1 to 300 ppm. Then the EC50 and LC50 values of active compounds were calculated. In this way, about 20 competent larvae were added to each well in 1 mL of the test solution. Wells containing only FSW with DMSO served as the controls.
(§4) Three replicates of each treatment were used. The plates were incubated at 27 °C for 1 h. The percentage of larval settlement was determined by counting the settled, live individuals under a dissecting microscope and expressing the result as a proportion of the total number of larvae in the well. EC50 (inhibits 50% of settlement of B. neritina larvae in comparison with the control) and LC50 (refers to the concentration that kills 50% of the test organisms in comparison with the control) levels of active compounds were calculated by using the Excel software program.

Bugula neritina larvae = assay: Larval settlement (antifouling) bioassay; conditions: for LC50/EC50: B. neritina larvae, ratio of lethal to settlement-inhibiting concentration; for EC50: Bugula neritina, 1 h, read-out: EC50, antifouling activity against B. neritina larvae settlement
Experimental: Larval culture and larval settlement assays matched the method reported in reference. […]
as §2, §3, §4

cathepsin B = target: T3, cathepsin B (Homo sapiens, UniProt P07858); assay: Cathepsin B activity assay (fluorogenic Z-Arg-Arg-AMC substrate); format: biochemical; conditions: cathepsin B from human liver; read-out: IC50, inhibitory activity towards cathepsin B
T3 construct: cathepsin B from human liver (Sigma); purchased Sigma; host or cells: human liver (tissue-purified)
Experimental: as §1
Figure S32. IR spectrum of 8-methoxy-1-naphthyl-1-(6′-O-acetyl)-α-glucopyranoside (10).
S1. Enzyme Inhibitory Assay
S1.1. Cathepsin B Activity Assay
The assay was performed in 96-well plate according to a published method with modification.
Brifely, 50 μL reaction buffer (100 mM sodium acetate (pH 5.5), 1 mM EDTA, 4 mM dithiothreitol) containing 0.0025 unit of cathepsin B from human liver (Sigma, one unit will liberate 1 nanomole of 7-amino-4-methylcoumarin from Z-Arg-Arg 7-amido-4-methylcoumarin per min at pH 6.0 at 40 °C) and 2 μL test compounds dissolved in DMSO were added to each well of a 96-well plate. After preincubation for 15 min at room temperature, 50 μL of reaction buffer containing 100 μM Z-Arg-Arg-7-amido-4-methylcoumarin (Sigma) was added and incubated for 30 min at room temperature.
Fluorescence was measured using a microplate reader (Wallac 1420 Victor 2, PerkinElmer, HolIand) with an excitation of 355 nm and emission at 460 nm.
His-taged human IMPDH П was recombinantly expressed in Escherichia coli and purified by Ni-NTA affinity chromotagraphy as described previously. The IMPDH activity assay was performed in 200-μL assay volume of 96-well plate. Briefly, 2 μL of test compound (dissolved in DMSO) or DMSO and 150 μL enzyme buffer containing 100 mM KH2PO4, 0.5 mM EDTA pH 8, and 2 mM dithiothreitol and 50 nM IMPDH were added into the plate and incubated at 37 °C for 15 min. The reaction was initiated by adding 50 μL reaction buffer containing a final concentration of 200 μM inosine 5-monophosphate (Sigma) and 200 μM NAD (Sigma). The OD was read at 340 nm after incubation at 37 °C for 30 min with a microplate reader (Wallac 1420 Victor 2, PerkinElmer, HolIand).
(1 picture or pasted object on this page, not shown here)

PTPlB = target: T4, PTPlB (Homo sapiens, UniProt P18031); assay: PTP1B activity assay (pNPP substrate); format: biochemical; conditions: human recombinant enzyme, read-out: IC50, inhibitory activity towards PTPlB
T4 construct: made in house; host or cells: E. coli
T4 sequence (P18031 1-435): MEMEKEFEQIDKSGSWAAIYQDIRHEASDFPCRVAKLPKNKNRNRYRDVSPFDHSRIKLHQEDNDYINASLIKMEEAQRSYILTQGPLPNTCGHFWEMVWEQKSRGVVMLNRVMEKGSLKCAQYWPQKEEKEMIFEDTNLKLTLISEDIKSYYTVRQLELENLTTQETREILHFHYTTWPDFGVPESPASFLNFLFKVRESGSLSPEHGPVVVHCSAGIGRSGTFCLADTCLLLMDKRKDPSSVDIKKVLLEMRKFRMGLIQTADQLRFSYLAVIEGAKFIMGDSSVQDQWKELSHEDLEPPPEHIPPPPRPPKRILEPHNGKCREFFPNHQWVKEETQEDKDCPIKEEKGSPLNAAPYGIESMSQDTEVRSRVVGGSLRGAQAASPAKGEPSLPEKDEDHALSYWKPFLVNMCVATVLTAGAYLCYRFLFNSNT

[1] = design: method as in doi:10.1016/j.tet.2009.02.054; conditions: previous studies ref 23; cited from earlier work

SMILES: Cc1c2c(c3oc4cc(=O)c(C)c5c-4c(c3c1O)O[C@H](C)[C@H]5C)O[C@H](C)[C@H]2C [Compound 6, dicitrinin A]
IC50 (IMPDH): 98.7 ± 6.2 µM
IC50 (SHP2): 58.4 ± 4 µM
LC50/EC50 (Bugula neritina larvae): > 56
EC50 (Bugula neritina larvae): 1.76 ± 0.8 µg/mL (≈ 4.63 µM)

SMILES: Cc1c(O)c(C(=O)O)c(O)c2c1[C@H](C)[C@@H](C)OC2=O [Compound 4, dihydrocitrinone]
IC50 (cathepsin B): 28.5 ± 1.7 µM

SMILES: Cc1c([C@H](C)[C@@H](C)O)cc(O)c(C(=O)O)c1O [Compound 7, phenol A acid]
IC50 (cathepsin B): 20.4 ± 1.9 µM
LC50/EC50 (Bugula neritina larvae): > 15
EC50 (Bugula neritina larvae; 27 °C): 14.3 ± 1.72 µg/mL (≈ 59.7 µM)

Further lines, with some results ahead:

IC50 (SHP2): 2.8 µM
SMILES: C[C@H]1[C@H](C)CC[C@]2(C(=O)O)CC[C@]3(C)C(=CC[C@@H]4[C@@]5(C)CC[C@H](O)C(C)(C)[C@@H]5CC[C@]43C)[C@H]12 [ursolic acid, reference compound]

IC50 (cathepsin B): 0.03 µM
SMILES: CC(=O)N[C@@H](CC(C)C)C(=O)N[C@@H](CC(C)C)C(=O)N[C@H](C=O)CCCNC(=N)N [leupeptin, reference compound]

IC50 (IMPDH): 41.2 ± 3.6 µM
IC50 (PTPlB): 13.9 ± 1.8 µM
IC50 (SHP2): 4.1 ± 0.6 µM
SMILES: O=C1C[C@@H](O)[C@@H](O)c2cccc(O)c21 [Compound 17, (3R,4S)-(+)-4-hydroxy-6-deoxyscytalone]
phytotoxicity (in words) [1]: phytotoxic substance

From publication PMC3707170, “Polyketides from a Marine-Derived Fungus Xylariaceae sp” (Marine Drugs, 2013)
